Measured values taken from patent publication US20260217708A1, “FUSED BENZAZEPINE DERIVATIVES FOR USE IN THE TREATMENT OF CANCER AND EPILEPSY” (UCB BIOPHARMA SRL, priority 2023, published 2026).

How the values were obtained:
system Xc^− [1] = target: T1, system Xc^− (Homo sapiens, UniProt Q9UPY5); assay: Cystine-induced glutamate release assay; format: cell-based; design: endogenous in cells; host or cells: H4 cells; conditions: H4 cells, sodium-free HEPES buffer, 50 μM L-Cystine, 2 hours, Amplex Red glutamate readout; read-out: pIC50 Cystine-induced glutamate release assay (converted)
T1 sequence (Q9UPY5 1-501): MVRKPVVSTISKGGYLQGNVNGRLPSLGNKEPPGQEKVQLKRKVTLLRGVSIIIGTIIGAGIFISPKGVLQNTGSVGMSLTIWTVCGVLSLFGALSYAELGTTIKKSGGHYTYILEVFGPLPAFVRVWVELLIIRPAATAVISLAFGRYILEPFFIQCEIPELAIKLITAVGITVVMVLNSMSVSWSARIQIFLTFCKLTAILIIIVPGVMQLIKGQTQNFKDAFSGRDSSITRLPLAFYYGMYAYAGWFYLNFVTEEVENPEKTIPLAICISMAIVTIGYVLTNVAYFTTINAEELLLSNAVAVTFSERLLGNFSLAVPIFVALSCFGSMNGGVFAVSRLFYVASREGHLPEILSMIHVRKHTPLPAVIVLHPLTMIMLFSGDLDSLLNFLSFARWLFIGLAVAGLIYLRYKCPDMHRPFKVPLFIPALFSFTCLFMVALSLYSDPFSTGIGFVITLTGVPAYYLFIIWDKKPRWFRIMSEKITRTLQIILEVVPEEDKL
T1 sequence (P08195 1-529 partner): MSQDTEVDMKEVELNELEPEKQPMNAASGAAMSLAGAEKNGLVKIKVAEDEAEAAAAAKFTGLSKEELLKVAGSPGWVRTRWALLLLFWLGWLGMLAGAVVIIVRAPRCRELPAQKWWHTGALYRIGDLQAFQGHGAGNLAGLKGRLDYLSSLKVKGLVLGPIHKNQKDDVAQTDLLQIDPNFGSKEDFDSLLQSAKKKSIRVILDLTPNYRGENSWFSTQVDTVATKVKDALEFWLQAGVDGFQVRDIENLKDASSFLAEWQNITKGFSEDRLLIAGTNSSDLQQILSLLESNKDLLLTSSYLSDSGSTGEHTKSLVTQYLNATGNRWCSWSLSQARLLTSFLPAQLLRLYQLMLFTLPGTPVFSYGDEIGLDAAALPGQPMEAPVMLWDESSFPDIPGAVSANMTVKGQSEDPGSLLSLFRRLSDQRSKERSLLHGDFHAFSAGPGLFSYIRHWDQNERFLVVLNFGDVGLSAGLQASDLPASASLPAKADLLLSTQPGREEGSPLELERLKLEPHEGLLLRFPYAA
From the text: (§1) The effect of compounds of Formula (I) on the system Xc^− functionality was examined in two independent cell assays: (i) measurement of cystine-induced glutamate release; and (ii) measurement of [^14C]L-Cystine uptake.
(§2) As described above, System Xc^−, also known as the cystine/glutamate antiporter, is an amino acid transporter that mediates the extrusion of intracellular L-glutamate outside the cell and the uptake of extracellular L-cystine into the cell.
(§3) By measuring respectively, the concentration of glutamate released outside the cell and the L-cystine uptaken in the cell, with increasing concentrations of compounds of formula (I) according to the present invention, the efficacy of said compounds to inhibit the System Xc^− function can be evaluated.
(§4) The efficacy of the compounds to inhibit system Xc^− is represented by measuring the IC50 which corresponds to the concentration of compound necessary to inhibit 50% of the signals from the two control groups; DMSO 1% and Erastin 50 μM in the respective assays. pIC50 values correspond to −log of the IC50 in Molar.
Measurement of cystine-induced glutamate release indicates levels of glutamate (outside of the cell) that are dependent on system Xc^− antiporter function. Upon the addition of L-Cystine to H4 cells, intracellular glutamate is counter-transported and exported in the supernatant.
In this assay, the medium is devoid of sodium to prevent the transport of glutamate by sodium-dependent excitatory amino acid transporters (EAATs). H4 cells were plated on 384-well culture plate at 1×10^4 cells/well in Dulbecco's Modified Eagle Medium (DMEM) with L-glutamine, penicillin/streptomycin and 10% fetal bovine serum (all from ThermoFisher Scientific) and incubated in a humidified CO2 incubator at 37° C. After 2 days, cells were washed 4 times with prewarmed sodium-free HEPES buffer (contents in mM: HEPES 10, KCl 5.4, CaCl2 2.5, MgCl2 1, KH2PO4 0.4, D-Glucose 5, Choline chloride 140), pH 7.4. Glutamate release was induced by addition of 50 μM of L-Cystine (Sigma-Aldrich), together with a test compound of Formula (I) at 1% final DMSO concentration. After 2 hours of incubation in the culture incubator, supernatants were transferred to a low-binding polypropylene 384-well plate to determine L-glutamate concentration using Amplex™ Red Glutamic Acid Assay Kit (ThermoFisher Scientific). Briefly, 10 μL of Amplex™ Red working solution was added to 10 μL of the supernatant, then the mixture was incubated for 30 min at 37° C. Fluorescence intensity was measured by EnVision microplate reader (PerkinElmer).

system Xc^− [2] = target: T1, system Xc^−; assay: [^14C]L-Cystine uptake assay; format: cell-based; design: endogenous in cells; host or cells: H4 cells; conditions: H4 cells, sodium-free HEPES buffer, 0.5 μM L-[14C]Cystine and 4.5 μM L-Cystine, 1 hour at 37° C.; read-out: pIC50 [^14C] L-Cystine uptake assay (converted)
From the text: as §1, §2, §3, §4
In this assay, the medium is devoid of sodium to prevent the transport of glutamate by sodium-dependent excitatory amino acid transporters (EAATs). H4 cells were plated on a 96-well CytoStar-T scintillating microplate (PerkinElmer) at 5×10^4 cells/well in the medium described above. After 1 day, cells were washed one time with the sodium-free HEPES buffer and preincubated with test compounds of Formula (I) (1% final DMSO) for 15 min. Uptake was initiated by adding 0.5 μM L-[1,2, 1′,2′-^14C]Cystine (0.02 mCi/mL, PerkinElmer, Waltham, US) and 4.5 μM L-Cystine (Sigma-Aldrich). After 1 hour at 37° C., plates were counted in a MicroBeta^2 microplate counter (PerkinElmer).

Compound `Cc1cc2c(c(Cl)n1)-c1cccnc1C(C)C(=O)N2CC(=O)Nc1ccc(C(F)F)cc1` (single isomer, unassigned) [#116, 2-[3-chloro-5,10-dimethyl-9-oxo-4,8,12-triazatricyclo[9.4.0.0^2,7]pentadeca-1(11),2(7),3,5,12,14-hexaen-8-yl]-N-[4-(difluoromethyl)phenyl]acetamide] has an IC50 (system Xc^− [1]) of under 15.8 nM and an IC50 (system Xc^− [2]) of under 15.8 nM.

`Cc1cc2c(c(Cl)n1)-c1cccnc1C(C)C(=O)N2CC(=O)Nc1ccc(Cl)c(F)c1` (single isomer, unassigned) [#117, 2-[3-chloro-5,10-dimethyl-9-oxo-4,8,12-triazatricyclo[9.4.0.0^2,7]pentadeca-1(15),2(7),3,5,11,13-hexaen-8-yl]-N-(4-chloro-3-fluorophenyl)acetamide] gave an IC50 (system Xc^− [1]) of under 15.8 nM and an IC50 (system Xc^− [2]) of under 15.8 nM.

`Cc1cc2c(n(C)c1=O)-c1ccccc1C(C)C(=O)N2CC(=O)Nc1ccc(C(F)(F)F)cc1` (single isomer, unassigned) [#121, N-[4-(trifluoromethyl)phenyl]-2-[1,3,7-trimethyl-2,6-dioxo-7H-pyrido[3,2-d][3]benzazepin-5-yl]acetamide] was tested, and the IC50 (system Xc^− [1]) was under 15.8 nM and the IC50 (system Xc^− [2]) was under 15.8 nM.

Work on `Cc1cc2c(c(F)n1)-c1cccnc1[C@@H](C)C(=O)N2CC(=O)Nc1ccc(C2CC2(F)F)cc1` (single isomer, unassigned) [#146] yielded an IC50 (system Xc^− [1]) of 39.8 to 100 nM and an IC50 (system Xc^− [2]) of 100 to 501 nM.

Work on `Cc1cc2c(c(C#N)n1)-c1cccnc1C(C)C(=O)N2CC(=O)Nc1ccc(Cl)c(F)c1` (single isomer, unassigned) [#155, N-(4-chloro-3-fluoro-phenyl)-2-[3-cyano-5,10-dimethyl-9-oxo-4,8,12-triazatricyclo[9.4.0.0^2,7]pentadeca-1(11),2(7),3,5,12,14-hexaen-8-yl]acetamide] yielded an IC50 (system Xc^− [1]) of under 15.8 nM and an IC50 (system Xc^− [2]) of under 15.8 nM.

For `Cc1cc2c(c(O)n1)-c1cccnc1C(C)C(=O)N2CC(=O)Nc1ccc(C(F)(F)F)cc1` (single isomer, unassigned) [#161, 2-(3-hydroxy-5,10-dimethyl-9-oxo-4,8,12-triazatricyclo[9.4.0.0^2,7]pentadeca-1(11),2(7),3,5,12,14-hexaen-8-yl)-N-[4-(trifluoromethyl)phenyl]acetamide], the IC50 (system Xc^− [1]) was 15.8 to 39.8 nM and the IC50 (system Xc^− [2]) was 15.8 to 39.8 nM.

`COCCOc1nc(C)cc2c1-c1cccnc1C(C)C(=O)N2CC(=O)Nc1ccc(C(F)(F)F)cc1` (single isomer, unassigned) [#162, 2-[3-(2-methoxyethoxy)-5,10-dimethyl-9-oxo-4,8,12-triazatricyclo[9.4.0.0^2,7]pentadeca-1(11),2(7),3,5,12,14-hexaen-8-yl]-N-[4-(trifluoromethyl)phenyl]acetamide] was tested, and the IC50 (system Xc^− [1]) was 15.8 to 39.8 nM and the IC50 (system Xc^− [2]) was 15.8 to 39.8 nM.

`Cc1cc2c(c(=O)n1C)-c1ccc(F)cc1C(C)C(=O)N2CC(=O)Nc1ccc(Cl)c(F)c1` (single isomer, unassigned) [#174, N-(4-chloro-3-fluoro-phenyl)-2-(9-fluoro-2,3,7-trimethyl-1,6-dioxo-7H-pyrido[4,3-d][3]benzazepin-5-yl)acetamide] was tested, and the IC50 (system Xc^− [1]) was under 15.8 nM and the IC50 (system Xc^− [2]) was under 15.8 nM.

Compound `Cc1cc2c(c(=O)n1C)-c1ccccc1C(C)C(=O)N2CC(=O)Nc1ccc(C(F)F)cc1` (single isomer, unassigned) [#175, N-[4-(difluoromethyl)phenyl]-2-(2,3,7-trimethyl-1,6-dioxo-7H-pyrido[4,3-d][3]benzazepin-5-yl)acetamide] has an IC50 (system Xc^− [1]) of under 15.8 nM and an IC50 (system Xc^− [2]) of under 15.8 nM.

With `O=C(CN1C(=O)C(O)c2ncc(F)cc2-c2c(F)cc(F)cc21)Nc1ccc(C(F)F)cc1` (single isomer, unassigned) [#318, N-[4-(difluoromethyl)phenyl]-2-[2,9,11-trifluoro-5-hydroxy-6-oxo-5H-pyrido[2,3-d][1]benzazepin-7-yl]acetamide] the IC50 (system Xc^− [1]) was under 15.8 nM.

`Cc1cc2c(c(C)n1)-c1ccc(C)nc1CC(=O)N2CC(=O)Nc1ccc(C(F)(F)F)cc1` [#70, N-[4-(trifluoromethyl)phenyl]-2-(3,5,13-trimethyl-9-oxo-4,8,12-triazatricyclo[9.4.0.0^2,7]pentadeca-1(11),2(7),3,5,12,14-hexaen-8-yl)acetamide] was tested, and the IC50 (system Xc^− [1]) was 39.8 to 100 nM.

`Cc1cc2c(c(F)n1)-c1cccnc1[C@@H](C)C(=O)N2CC(=O)Nc1cc(F)c(Cl)cc1F` [#245, N-(4-chloro-2,5-difluoro-phenyl)-2-[(10R)-3-fluoro-5,10-dimethyl-9-oxo-4,8,12-triazatricyclo[9.4.0.0^2,7]pentadeca-1(15),2,4,6,11,13-hexaen-8-yl]acetamide] gave an IC50 (system Xc^− [1]) of 15.8 to 39.8 nM.

`CC1C(=O)N(CC(=O)Nc2ccc(C(F)F)cc2)c2cc(N3CC(F)(F)C3)nc(Cl)c2-c2cccnc21` (centres unmarked) [#292, 2-[3-chloro-5-(3,3-difluoroazetidin-1-yl)-10-methyl-9-oxo-4,8,12-triazatricyclo[9.4.0.0^2,7]pentadeca-1(15),2,4,6,11,13-hexaen-8-yl]-N-[4-(difluoromethyl)phenyl]acetamide] gave an IC50 (system Xc^− [1]) of under 15.8 nM.

For `COc1ccc2c(c1)N(CC(=O)Nc1ccc(C(F)F)cc1)C(=O)C(C)c1ncccc1-2` (centres unmarked) [#305, N-[4-(difluoromethyl)phenyl]-2-(9-methoxy-5-methyl-6-oxo-5H-pyrido[2,3-d][1]benzazepin-7-yl)acetamide], the IC50 (system Xc^− [1]) was 39.8 to 100 nM.

For `CC1C(=O)N(CC(=O)Nc2ccc(C(F)F)cc2)c2cc(C(F)F)nc(Cl)c2-c2cccnc21` (centres unmarked) [#338, 2-[3-chloro-5-(difluoromethyl)-10-methyl-9-oxo-4,8,12-triazatricyclo[9.4.0.0^2,7]pentadeca-1(11),2(7),3,5,12,14-hexaen-8-yl]-N-[4-(difluoromethyl)phenyl]acetamide], the IC50 (system Xc^− [1]) was under 15.8 nM.

`O=C(CN1C(=O)Cc2cc(Cl)ccc2-c2c1cc(C1CC1)nc2Cl)Nc1ccc(C(F)F)cc1` [#340, 2-(1,9-dichloro-3-cyclopropyl-6-oxo-7H-pyrido[4,3-d][3]benzazepin-5-yl)-N-[4-(difluoromethyl)phenyl]acetamide] was tested, and the IC50 (system Xc^− [1]) was 39.8 to 100 nM.

`CC1C(=O)N(CC(=O)Nc2ccc(Cl)c(F)c2)c2cc(C3(F)CN(C)C3)nc(Cl)c2-c2cccnc21` (centres unmarked) [#422, 2-[3-chloro-5-(3-fluoro-1-methyl-azetidin-3-yl)-10-methyl-9-oxo-4,8,12-triazatricyclo[9.4.0.0^2,7]pentadeca-1(11),2,4,6,12,14-hexaen-8-yl]-N-(4-chloro-3-fluoro-phenyl)acetamide] gave an IC50 (system Xc^− [1]) of 15.8 to 39.8 nM.
